Assays:
Experiment in all cases: relative viability (nuclei count vs DMSO), 5 days (fraction); higher = more cells survive
CAL-12T = tested on: CAL-12T
Outline: (§1)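 Dosing by pin tool came one day after lung cancer cell lines were seeded in 1536-well plates, using either one drug or a fixed anchor-drug dose plus five library-drug doses (not always all listed) in √10 steps. After 5 days, nuclei were counted on 4× images. Relative viability is treated-well nuclei count divided by vehicle-well nuclei count, and values are medians of duplicate plates.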

COR-L 105 = tested on: COR-L 105
Outline: as §1

COR-L23 = tested on: COR-L23
Outline: as §1

HARA = tested on: HARA
Outline: as §1

HCC-15 = tested on: HCC-15
Outline: as §1

HCC-366 = tested on: HCC-366
Outline: as §1

HCC-44 = tested on: HCC-44
Outline: as §1

HCC-827 = tested on: HCC-827
Outline: as §1

HOP-62 = tested on: HOP-62
Outline: as §1

LC-2-ad = tested on: LC-2-ad
Outline: as §1

LCLC-97TM1 = tested on: LCLC-97TM1
Outline: as §1

LU99A = tested on: LU99A
Outline: as §1

LXF-289 = tested on: LXF-289
Outline: as §1

NCI-H1993 = tested on: NCI-H1993
Outline: as §1

NCI-H2009 = tested on: NCI-H2009
Outline: as §1

NCI-H2087 = tested on: NCI-H2087
Outline: as §1

NCI-H2126 = tested on: NCI-H2126
Outline: as §1

NCI-H2170 = tested on: NCI-H2170
Outline: as §1

PC-14 = tested on: PC-14
Outline: as §1

PC-3 [JPC-3] = tested on: PC-3 [JPC-3]
Outline: as §1

SK-MES-1 = tested on: SK-MES-1
Outline: as §1

Question: What does the source list for `COCC1(CO)C(=O)C2CCN1CC2` (configuration not stated) [PRIMA-1MET] + CS(=O)(=O)CCNCc1ccc(-c2ccc3ncnc(Nc4ccc(OCc5cccc(F)c5)c(Cl)c4)c3c2)o1 [Lapatinib] (partner 2 µM)?
Answer: relative viability (CAL-12T; first compound 0.2 µM): 0.704; relative viability (CAL-12T; first compound 0.6325 µM): 0.736; relative viability (CAL-12T; first compound 2 µM): 0.571; relative viability (CAL-12T; first compound 6.325 µM): 0.677; relative viability (CAL-12T; first compound 20 µM): 0.388; relative viability (COR-L 105; first compound 0.2 µM): 0.45; relative viability (COR-L 105; first compound 0.6325 µM): 0.33; relative viability (COR-L 105; first compound 2 µM): 0.312; relative viability (COR-L 105; first compound 6.325 µM): 0.419; relative viability (COR-L 105; first compound 20 µM): 0.22; relative viability (COR-L23; first compound 0.2 µM): 1.11; relative viability (COR-L23; first compound 0.6325 µM): 0.922; relative viability (COR-L23; first compound 2 µM): 0.941; relative viability (COR-L23; first compound 6.325 µM): 1.17; relative viability (COR-L23; first compound 20 µM): 0.0199; relative viability (HARA; first compound 0.2 µM): 0.782; relative viability (HARA; first compound 0.6325 µM): 0.649; relative viability (HARA; first compound 6.325 µM): 0.804; relative viability (HARA; first compound 20 µM): 0.706; relative viability (HCC-15; first compound 0.2 µM): 0.811; relative viability (HCC-15; first compound 0.6325 µM): 0.743; relative viability (HCC-15; first compound 2 µM): 0.777; relative viability (HCC-15; first compound 6.325 µM): 0.853; relative viability (HCC-15; first compound 20 µM): 0.623; relative viability (HCC-366; first compound 0.2 µM): 1.28; relative viability (HCC-366; first compound 0.6325 µM): 0.856; relative viability (HCC-366; first compound 6.325 µM): 0.915; relative viability (HCC-366; first compound 20 µM): 0.016; relative viability (HCC-44; first compound 0.2 µM): 1.02; relative viability (HCC-44; first compound 0.6325 µM): 0.775; relative viability (HCC-44; first compound 2 µM): 0.99; relative viability (HCC-44; first compound 6.325 µM): 1.01; relative viability (HCC-44; first compound 20 µM): 0.994; relative viability (HCC-827; first compound 0.2 µM): 0.22; relative viability (HCC-827; first compound 0.6325 µM): 0.164; relative viability (HCC-827; first compound 2 µM): 0.198; relative viability (HCC-827; first compound 6.325 µM): 0.184; relative viability (HCC-827; first compound 20 µM): 0.198; relative viability (HOP-62; first compound 0.2 µM): 1.17; relative viability (HOP-62; first compound 0.6325 µM): 0.911; relative viability (HOP-62; first compound 2 µM): 0.887; relative viability (HOP-62; first compound 6.325 µM): 1.06; relative viability (HOP-62; first compound 20 µM): 0.853; relative viability (LC-2-ad; first compound 0.2 µM): 1.15; relative viability (LC-2-ad; first compound 0.6325 µM): 0.831; relative viability (LC-2-ad; first compound 2 µM): 0.769; relative viability (LC-2-ad; first compound 6.325 µM): 0.936; relative viability (LC-2-ad; first compound 20 µM): 0.963; relative viability (LCLC-97TM1; first compound 0.2 µM): 0.776; relative viability (LCLC-97TM1; first compound 2 µM): 0.998; relative viability (LCLC-97TM1; first compound 6.325 µM): 1.08; relative viability (LCLC-97TM1; first compound 20 µM): 0.148; relative viability (LU99A; first compound 0.2 µM): 1.1; relative viability (LU99A; first compound 0.6325 µM): 0.905; relative viability (LU99A; first compound 2 µM): 0.955; relative viability (LU99A; first compound 6.325 µM): 0.91; relative viability (LU99A; first compound 20 µM): 0.0802; relative viability (LXF-289; first compound 0.2 µM): 0.878; relative viability (LXF-289; first compound 0.6325 µM): 0.879; relative viability (LXF-289; first compound 2 µM): 0.979; relative viability (LXF-289; first compound 6.325 µM): 0.923; relative viability (LXF-289; first compound 20 µM): 0.836; relative viability (NCI-H1993; first compound 0.2 µM): 0.776; relative viability (NCI-H1993; first compound 0.6325 µM): 0.776; relative viability (NCI-H1993; first compound 2 µM): 0.731; relative viability (NCI-H1993; first compound 6.325 µM): 0.771; relative viability (NCI-H1993; first compound 20 µM): 0.759; relative viability (NCI-H2009; first compound 0.2 µM): 0.66; relative viability (NCI-H2009; first compound 0.6325 µM): 0.844; relative viability (NCI-H2009; first compound 2 µM): 0.669; relative viability (NCI-H2009; first compound 6.325 µM): 0.905; relative viability (NCI-H2009; first compound 20 µM): 0.0051; relative viability (NCI-H2087; first compound 0.2 µM): 0.848; relative viability (NCI-H2087; first compound 0.6325 µM): 0.813; relative viability (NCI-H2087; first compound 2 µM): 0.848; relative viability (NCI-H2087; first compound 6.325 µM): 1.22; relative viability (NCI-H2087; first compound 20 µM): 0.919; relative viability (NCI-H2126; first compound 0.2 µM): 0.875; relative viability (NCI-H2126; first compound 0.6325 µM): 0.757; relative viability (NCI-H2126; first compound 2 µM): 0.733; relative viability (NCI-H2126; first compound 6.325 µM): 0.815; relative viability (NCI-H2126; first compound 20 µM): 0.773; relative viability (NCI-H2170; first compound 0.2 µM): 0.263; relative viability (NCI-H2170; first compound 0.6325 µM): 0.236; relative viability (NCI-H2170; first compound 2 µM): 0.237; relative viability (NCI-H2170; first compound 6.325 µM): 0.276; relative viability (NCI-H2170; first compound 20 µM): 0.273; relative viability (PC-14; first compound 0.2 µM): 0.396; relative viability (PC-14; first compound 0.6325 µM): 0.326; relative viability (PC-14; first compound 2 µM): 0.251; relative viability (PC-14; first compound 6.325 µM): 0.367; relative viability (PC-14; first compound 20 µM): 0.358; relative viability (PC-3 [JPC-3]; first compound 0.2 µM): 0.544; relative viability (PC-3 [JPC-3]; first compound 0.6325 µM): 0.392; relative viability (PC-3 [JPC-3]; first compound 2 µM): 0.456; relative viability (PC-3 [JPC-3]; first compound 6.325 µM): 0.447; relative viability (PC-3 [JPC-3]; first compound 20 µM): 0.478; relative viability (SK-MES-1; first compound 0.2 µM): 0.571; relative viability (SK-MES-1; first compound 0.6325 µM): 0.365; relative viability (SK-MES-1; first compound 2 µM): 0.448; relative viability (SK-MES-1; first compound 6.325 µM): 0.477; relative viability (SK-MES-1; first compound 20 µM): 0.516
